The text below walks through data of ChEMBL document CHEMBL1201862, “PubChem BioAssay data set” (2004).

Assay [1] has as its target T1, Zinc finger protein mex-5 (Caenorhabditis elegans, UniProt Q9XUB2).
T1 sequence (Q9XUB2 whole entry): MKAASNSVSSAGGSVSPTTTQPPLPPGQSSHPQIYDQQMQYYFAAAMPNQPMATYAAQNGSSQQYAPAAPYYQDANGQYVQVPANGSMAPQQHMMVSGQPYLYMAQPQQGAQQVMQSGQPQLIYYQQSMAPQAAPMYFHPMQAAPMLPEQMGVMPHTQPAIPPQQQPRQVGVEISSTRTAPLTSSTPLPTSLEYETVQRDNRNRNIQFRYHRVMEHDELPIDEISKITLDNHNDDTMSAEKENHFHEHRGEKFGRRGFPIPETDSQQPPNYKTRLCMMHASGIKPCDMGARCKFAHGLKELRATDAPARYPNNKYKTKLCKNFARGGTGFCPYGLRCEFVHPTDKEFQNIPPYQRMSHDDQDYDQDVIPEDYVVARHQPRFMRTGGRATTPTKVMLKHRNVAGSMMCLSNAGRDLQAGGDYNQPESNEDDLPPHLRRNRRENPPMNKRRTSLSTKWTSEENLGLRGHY
Put plainly: MEX-5/TCR-2 RNA interaction inhibitors, dose response, biochemical, C. elegans, fluorescence polarization (AID 1960).

For the next assay, the target named is T2, Protein Tat (Human immunodeficiency virus type 1 group M subtype B (isolate HXB2)(HIV-1), UniProt P04608).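 Also: tat binding to TAR RNA read out by fluorescence polarization.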
T2 sequence (P04608 whole entry): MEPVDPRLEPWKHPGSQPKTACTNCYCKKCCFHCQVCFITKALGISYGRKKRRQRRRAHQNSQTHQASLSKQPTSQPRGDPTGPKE
Format: functional.

Assay [2] concerns Escherichia coli. Put plainly: microbe, parasite or virus in culture.
The next assay has as its target T3, Cysteine protease ATG4B (Homo sapiens, UniProt Q9Y4P1).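 Also: Fluorescence-based dose-response confirmation assay measuring inhibition of ATG4B activity.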
T3 sequence (Q9Y4P1 whole entry): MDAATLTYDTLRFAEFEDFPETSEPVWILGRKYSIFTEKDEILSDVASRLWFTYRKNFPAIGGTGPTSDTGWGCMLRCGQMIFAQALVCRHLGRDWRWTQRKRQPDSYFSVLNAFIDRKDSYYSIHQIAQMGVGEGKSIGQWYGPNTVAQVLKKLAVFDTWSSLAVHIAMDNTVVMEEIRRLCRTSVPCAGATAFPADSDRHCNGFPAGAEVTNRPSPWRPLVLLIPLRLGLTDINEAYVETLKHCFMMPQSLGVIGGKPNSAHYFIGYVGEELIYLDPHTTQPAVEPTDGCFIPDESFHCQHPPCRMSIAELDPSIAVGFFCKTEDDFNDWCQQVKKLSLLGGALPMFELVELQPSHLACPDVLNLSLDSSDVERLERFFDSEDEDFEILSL
Format: functional.

Assay [3] deals with Escherichia coli. Briefly: microbe, parasite or virus in culture. The source holds these as a separate data set.
Assay [4] can be described thus: THP-1 cell cytotoxicity, dose response, cytotoxicity control for Vif-APOBEC3G degradation inhibitor project, THP-1 cells (AID 1117359). Format: functional. The settings on record: Human immunodeficiency virus 1, THP-1.
Another assay addresses Phospholipase A2 (Homo sapiens, UniProt P04054). Format: functional.
The test system of the next assay is HeLa. Put plainly: HeLa cell cytotoxicity, dose response, cytotoxicity control for MITF activator project, CellTiter-Glo luminescence, cherry-pick samples (AID 540259). Format: functional, cell-based. To be noted: Homo sapiens.
Assay [5] has as its target Dual specificity tyrosine-phosphorylation-regulated kinase 1A (Rattus norvegicus, UniProt Q63470). Format: biochemical, Homo sapiens.
For assay [6], the target named is T4, Heat shock factor protein 1 (Mus musculus, UniProt P38532).
T4 sequence (P38532 whole entry): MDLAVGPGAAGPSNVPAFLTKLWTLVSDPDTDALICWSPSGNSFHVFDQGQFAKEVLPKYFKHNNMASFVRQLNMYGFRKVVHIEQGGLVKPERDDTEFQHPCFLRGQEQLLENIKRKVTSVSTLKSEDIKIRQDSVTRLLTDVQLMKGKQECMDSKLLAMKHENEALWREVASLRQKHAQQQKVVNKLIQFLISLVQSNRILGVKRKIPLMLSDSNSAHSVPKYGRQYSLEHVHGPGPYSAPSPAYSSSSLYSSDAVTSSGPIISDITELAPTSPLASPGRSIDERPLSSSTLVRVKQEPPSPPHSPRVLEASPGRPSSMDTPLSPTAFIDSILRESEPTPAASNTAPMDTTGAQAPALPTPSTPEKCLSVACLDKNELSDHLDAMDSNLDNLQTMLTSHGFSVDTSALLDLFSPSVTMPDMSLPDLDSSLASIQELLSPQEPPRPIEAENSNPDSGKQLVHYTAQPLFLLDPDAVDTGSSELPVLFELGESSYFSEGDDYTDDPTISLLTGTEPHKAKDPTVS
Put plainly: inhibition of MG132-induced HSE-luciferase signal, confirmation, cell-based, NIH3T3, luminescence, dose retest (AID 2382).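 Also: NIH3T3 fibroblasts with HSF1-driven luciferase reporter stressed by proteasome inhibitor MG132; luminescence from HSF1-driven luciferase expression after 8 hours of MG132 stress.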 Format: functional.

Assay [7] is described as follows: Luminescence Cell-Based Dose Response HTS to Identify Inhibitors of 5'UTR Stem-Loop Driven Prion Protein mRNA Translation in H4 Neuroglioblastoma Cells. [Related pubchem assays: 1827 (Project Summary), 1813 (Primary HTS)]. Format: functional.
A short description of assay [8]: inhibitors of firefly luciferase expression or activity, dose response, H4 neuroglioma cells, luminescence (AID 1990). Format: functional, cell-based.
In assay [9] the test system is Jurkat. Briefly: antigen receptor-induced NF-kB inhibitors, dose response, Jurkat, luciferase reporter, luminescence, B- and T-cell (AID 489004).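 Also: NF-kB luciferase reporter Jurkat cells stimulated with PMA plus ionomycin.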 Format: functional, cell-based. To be noted: Homo sapiens.
Assay [10] can be described thus: cytotoxicity in HEK-293T NF-kB-Luc cells, dose response, cytotoxicity control for B/T-cell NF-kB inhibitor project, cell-based, uHTS hits (AID 489019).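 Also: IC50 reflects cytotoxicity as loss of cell viability.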 Format: functional.
For a further assay, the system named is SN12K1. Briefly: cells. Format: functional. The settings on record: Homo sapiens.
A short description of assay [11]: inhibitors of SNCA 5'UTR-driven reporter translation, confirmation, H4 neuroglioma cells, luminescence (AID 1988). Format: functional, cell-based.
For a further assay, the system named is P388. Put plainly: cells. Format: functional. To be noted: Mus musculus.
The subject of the next assay is P388/ADR. Briefly: cells. Format: functional. To be noted: Mus musculus.
Assay [12] has as its target Dual specificity protein kinase CLK1 (Homo sapiens, UniProt P49759). Put plainly: CLK1 kinase inhibitors, off-target check, dose response, selectivity assay for Dyrk1A inhibitor project, biochemical, cherry-picked samples (AID 588811).
For another assay, the target named is Phospholipase D2 (Homo sapiens, UniProt O14939). Briefly: PLD2 purified enzyme concentration response. [Related pubchem assays (depositor defined):AID588854]. Format: functional.
The target in the next assay is Phospholipase D1 (Homo sapiens, UniProt Q13393). Briefly: PLD1 purified enzyme concentration response. [Related pubchem assays (depositor defined):AID588854]. Format: functional.
Assay [13] deals with HEK293. Put plainly: SAR Analysis of small molecule inhibitors of T-cell specific antigen receptor-induced NF-kB activation in a HEK-293T cell line using a luminescence assay - Set 2. [Related pubchem assays (depositor defined):AID435003, AID435012, AID489026]. Format: functional, cell-based. The settings on record: Homo sapiens.
The test system of assay [14] is Jurkat. Briefly: SAR Analysis of small molecule inhibitors of T-cell specific antigen receptor-induced NF-kB activation in a Jurkat cell line using a luminescence assay - Set 2. [Related pubchem assays (depositor defined):AID435003, AID435012, AID465]. Format: functional, cell-based. To be noted: Homo sapiens.
For assay [15], the system named is HEK293. Put plainly: cytotoxicity in HEK293T NF-kB-Luc cells, SAR follow-up, cytotoxicity control for NF-kB activator project, cell-based, resazurin fluorescence (AID 493251). Format: functional. The settings on record: Homo sapiens.
In assay [16] the target is T5, Endoribonuclease toxin MazF (Escherichia coli K-12, UniProt P0AE70). Briefly: MazF toxin RNase activators, dose response, biochemical, fluorescence, single-stranded RNA substrate, uHTS hits (AID 588481). Format: functional.
Assay [17] addresses Female germline-specific tumor suppressor gld-1 (Caenorhabditis elegans, UniProt Q17339). Put plainly: inhibitors of GLD-1 binding to TGE RNA, dose response, biochemical, fluorescence polarization, C. elegans (AID 2802).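 Also: fluorescence polarization of labeled TGE RNA bound by purified gld-1 protein.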
Another assay concerns the target Protein Rev (Human immunodeficiency virus type 1 group M subtype B (isolate HXB2)(HIV-1), UniProt P04618). Put plainly: inhibitors of Rev binding to RRE RNA, dose response, biochemical, fluorescence polarization, HIV-1 (AID 434976). Details: species or system Human immunodeficiency virus 1.
A further assay deals with T6, Caspase-3 (Homo sapiens, UniProt P42574).
T6 sequence (P42574 whole entry): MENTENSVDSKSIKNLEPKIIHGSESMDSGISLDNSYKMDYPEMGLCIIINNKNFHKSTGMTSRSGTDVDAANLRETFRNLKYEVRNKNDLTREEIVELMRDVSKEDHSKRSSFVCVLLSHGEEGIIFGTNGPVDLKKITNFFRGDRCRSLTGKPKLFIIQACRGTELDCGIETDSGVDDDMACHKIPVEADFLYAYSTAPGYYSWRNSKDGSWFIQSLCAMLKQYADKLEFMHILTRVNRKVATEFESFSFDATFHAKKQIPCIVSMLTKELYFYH
Briefly: procaspase-3 activators, dose response, biochemical, absorbance (AID 489014).

The target of assay [18] is T5, Endoribonuclease toxin MazF. Briefly: fluorescent RNA oligo signal without MazF, dose response, counter-screen for MazEF activator project, biochemical, fluorescence, single-stranded RNase substrate (AID 588502). Format: functional.
Another assay has as its target Caspase-7 (Homo sapiens, UniProt P55210). Put plainly: procaspase-7 activators, dose response, counter-screen for procaspase-3 activator project, biochemical, absorbance (AID 489013).

Each structure is given as a SMILES string. The source made the active and inactive calls.

T5 sequence (P0AE70 whole entry): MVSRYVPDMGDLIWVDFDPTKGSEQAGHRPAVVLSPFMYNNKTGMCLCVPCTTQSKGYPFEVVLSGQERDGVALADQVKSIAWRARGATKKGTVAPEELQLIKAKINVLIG
Chain of Phospholipase D2 (O14939 whole entry): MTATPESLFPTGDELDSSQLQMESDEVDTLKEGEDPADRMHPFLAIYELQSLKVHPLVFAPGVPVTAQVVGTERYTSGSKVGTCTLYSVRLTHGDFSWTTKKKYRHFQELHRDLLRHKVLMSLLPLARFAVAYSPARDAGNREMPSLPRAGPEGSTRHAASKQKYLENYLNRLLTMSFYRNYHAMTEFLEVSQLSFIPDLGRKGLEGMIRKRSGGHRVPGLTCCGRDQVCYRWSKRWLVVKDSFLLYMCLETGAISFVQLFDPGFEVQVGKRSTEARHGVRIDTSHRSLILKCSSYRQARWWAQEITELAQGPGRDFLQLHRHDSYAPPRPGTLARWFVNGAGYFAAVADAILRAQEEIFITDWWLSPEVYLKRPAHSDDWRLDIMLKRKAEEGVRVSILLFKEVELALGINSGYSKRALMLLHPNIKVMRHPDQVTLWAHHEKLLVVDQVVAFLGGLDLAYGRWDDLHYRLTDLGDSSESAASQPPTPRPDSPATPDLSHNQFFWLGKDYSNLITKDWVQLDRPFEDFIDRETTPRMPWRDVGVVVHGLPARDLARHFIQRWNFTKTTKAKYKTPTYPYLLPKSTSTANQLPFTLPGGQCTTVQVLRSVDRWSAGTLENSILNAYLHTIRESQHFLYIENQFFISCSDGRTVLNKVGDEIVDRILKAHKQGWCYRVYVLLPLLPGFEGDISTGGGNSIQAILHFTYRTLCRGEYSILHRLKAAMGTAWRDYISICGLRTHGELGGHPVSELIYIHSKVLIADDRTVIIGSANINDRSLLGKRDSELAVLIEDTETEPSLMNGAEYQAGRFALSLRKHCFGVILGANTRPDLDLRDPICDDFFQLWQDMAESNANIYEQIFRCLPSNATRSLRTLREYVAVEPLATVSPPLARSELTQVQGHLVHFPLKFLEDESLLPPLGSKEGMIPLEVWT
Chain of Protein Rev (P04618 whole entry): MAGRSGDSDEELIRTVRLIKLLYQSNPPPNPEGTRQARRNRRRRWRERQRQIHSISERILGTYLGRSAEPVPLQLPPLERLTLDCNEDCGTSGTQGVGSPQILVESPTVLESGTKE
Chain of Female germline-specific tumor suppressor gld-1 (Q17339 whole entry): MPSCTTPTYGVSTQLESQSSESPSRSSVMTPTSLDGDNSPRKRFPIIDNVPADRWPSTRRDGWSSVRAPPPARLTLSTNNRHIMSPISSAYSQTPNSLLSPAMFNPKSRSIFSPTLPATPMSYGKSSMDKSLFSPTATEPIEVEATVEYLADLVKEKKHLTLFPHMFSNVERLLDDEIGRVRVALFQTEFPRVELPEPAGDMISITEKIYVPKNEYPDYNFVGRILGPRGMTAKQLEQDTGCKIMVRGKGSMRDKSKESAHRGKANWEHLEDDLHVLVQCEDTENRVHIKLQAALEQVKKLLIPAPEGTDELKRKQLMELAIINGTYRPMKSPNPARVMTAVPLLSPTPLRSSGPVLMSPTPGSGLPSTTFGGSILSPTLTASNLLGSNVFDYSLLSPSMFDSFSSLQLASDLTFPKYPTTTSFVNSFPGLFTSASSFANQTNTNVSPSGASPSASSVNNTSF
Chain of Dual specificity protein kinase CLK1 (P49759 whole entry): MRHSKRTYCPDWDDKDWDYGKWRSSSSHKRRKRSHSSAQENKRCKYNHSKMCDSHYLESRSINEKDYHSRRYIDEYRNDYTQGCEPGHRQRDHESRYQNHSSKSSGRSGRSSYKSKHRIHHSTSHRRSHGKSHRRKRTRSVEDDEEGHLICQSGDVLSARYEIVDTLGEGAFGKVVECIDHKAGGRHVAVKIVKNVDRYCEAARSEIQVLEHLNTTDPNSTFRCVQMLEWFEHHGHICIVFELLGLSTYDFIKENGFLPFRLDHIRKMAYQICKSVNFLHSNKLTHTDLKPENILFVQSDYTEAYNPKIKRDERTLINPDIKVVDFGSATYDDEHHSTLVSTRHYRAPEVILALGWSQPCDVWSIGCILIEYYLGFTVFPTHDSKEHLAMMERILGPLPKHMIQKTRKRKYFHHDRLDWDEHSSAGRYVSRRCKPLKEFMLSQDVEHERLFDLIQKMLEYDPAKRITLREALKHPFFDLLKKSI
Chain of Caspase-7 (P55210 24-198 limits assumed): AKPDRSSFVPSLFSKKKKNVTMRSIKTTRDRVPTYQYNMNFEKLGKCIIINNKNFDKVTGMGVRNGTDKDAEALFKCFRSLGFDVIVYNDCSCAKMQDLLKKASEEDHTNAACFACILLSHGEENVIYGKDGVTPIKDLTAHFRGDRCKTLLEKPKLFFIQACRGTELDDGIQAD
Chain of Caspase-7 (P55210 207-303 limits assumed): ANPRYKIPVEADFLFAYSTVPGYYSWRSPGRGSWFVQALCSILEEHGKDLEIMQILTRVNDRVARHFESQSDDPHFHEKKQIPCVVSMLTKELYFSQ
Chain of Phospholipase D1 (Q13393 whole entry): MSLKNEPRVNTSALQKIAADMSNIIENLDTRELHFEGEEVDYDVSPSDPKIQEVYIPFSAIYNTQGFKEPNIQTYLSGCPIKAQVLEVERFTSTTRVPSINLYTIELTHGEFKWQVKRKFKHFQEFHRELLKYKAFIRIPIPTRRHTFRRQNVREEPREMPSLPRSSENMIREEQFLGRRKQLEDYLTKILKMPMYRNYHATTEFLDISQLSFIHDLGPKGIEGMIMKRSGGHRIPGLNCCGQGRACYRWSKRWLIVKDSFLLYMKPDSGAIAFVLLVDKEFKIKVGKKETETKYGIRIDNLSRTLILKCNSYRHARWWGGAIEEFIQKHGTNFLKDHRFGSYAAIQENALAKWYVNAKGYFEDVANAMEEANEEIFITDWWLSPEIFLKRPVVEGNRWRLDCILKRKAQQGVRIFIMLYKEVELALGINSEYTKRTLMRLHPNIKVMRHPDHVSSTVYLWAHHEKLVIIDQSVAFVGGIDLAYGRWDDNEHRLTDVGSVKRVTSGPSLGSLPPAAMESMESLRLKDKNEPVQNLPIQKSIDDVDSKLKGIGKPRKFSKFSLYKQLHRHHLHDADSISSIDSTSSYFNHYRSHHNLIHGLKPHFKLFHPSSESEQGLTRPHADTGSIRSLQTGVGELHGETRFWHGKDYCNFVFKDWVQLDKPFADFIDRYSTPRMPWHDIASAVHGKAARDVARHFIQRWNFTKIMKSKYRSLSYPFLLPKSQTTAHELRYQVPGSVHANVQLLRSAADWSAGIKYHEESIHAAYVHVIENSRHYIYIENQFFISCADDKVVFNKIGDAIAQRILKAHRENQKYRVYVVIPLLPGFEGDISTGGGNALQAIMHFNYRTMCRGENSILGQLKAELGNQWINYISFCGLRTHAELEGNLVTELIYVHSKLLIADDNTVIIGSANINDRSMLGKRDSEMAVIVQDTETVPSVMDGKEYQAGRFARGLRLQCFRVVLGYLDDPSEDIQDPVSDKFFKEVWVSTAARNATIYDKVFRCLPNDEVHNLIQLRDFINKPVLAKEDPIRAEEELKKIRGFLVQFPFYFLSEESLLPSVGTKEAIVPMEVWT
Chain of Phospholipase A2 (P04054 whole entry): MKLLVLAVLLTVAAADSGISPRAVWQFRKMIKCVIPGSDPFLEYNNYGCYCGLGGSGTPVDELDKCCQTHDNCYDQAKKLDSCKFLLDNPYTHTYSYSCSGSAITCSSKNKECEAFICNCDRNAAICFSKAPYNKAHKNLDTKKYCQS

Consider `C[C@H]1c2cccc(O)c2C(=O)C2=C(O)[C@]3(O)C(=O)C(C(N)=O)=C(O)[C@@H](N(C)C)[C@@H]3[C@@H](O)[C@@H]21`, for which the EC50 in assay [1] is 37.9 µM (active). In addition, the IC50 on Protein Tat is > 100 µM (active); on Cysteine protease ATG4B, 10.4 µM (active); on Phospholipase A2, 42.9 µM (inactive). Besides, the results for the concentration at half-maximal activity (AC50) with Escherichia coli [2] and in the assay with Escherichia coli [3] were 0.783 µM (active) and 20.8 µM (active), respectively. Further, the CC50 in assay [4] was 36 µM (active).

As for `Cc1ccc(NC(=O)C(=O)NCc2ccccn2)cc1`, the AC50 with HeLa was > 350 µM (inactive).

Take `COc1ccc(C=C2SC(=S)NC2=O)cc1`: the AC50 in assay [5] was 0.104 µM (active).

With `Nc1nc(Cl)nc2c1ncn2C1CC(O)C(CO)O1` (stereo not given), the EC50 was 79.9 µM (active) in [6], 3.61 µM (active) in assay [7], 0.544 µM (active) in [8] and 0.567 µM (active) in assay [11]. In addition, the half-maximal inhibitory concentration (IC50) is 2.36 µM (active) in the assay with Jurkat [9] and > 80 µM (inactive) in assay [10]. In addition, the values for the 50% growth inhibitory concentration (GI50) in the assay on SN12K1, with P388 and in the assay with P388/ADR were 0.695 µM (active), 0.0428 µM (active) and 0.0535 µM (active), respectively.

With `Clc1cc(Cl)cc(CNc2ncncc2-c2ccc3c(c2)OCO3)c1`, the AC50 in assay [12] is 0.0305 µM (active).

For the molecule `O=C(NCCN1CCC2(CC1)C(=O)NCN2c1ccc(Br)cc1)c1cnc2ccccc2c1`, the IC50 on Phospholipase D2 was 0.13 µM (active); on Phospholipase D1, 3.04 µM (active).

Turning to `Cc1ccc(C(NC(=O)C(C)C)c2ccc3cccnc3c2O)cc1` (stereo not given), the IC50 in the assay with HEK293 [13] is 6.33 µM (active); in the assay with Jurkat [14], 3.26 µM (active); with HEK293 [15], 8.28 µM (active).

In the case of `CC(=O)Oc1cccc2c1C(=O)c1c(OC(C)=O)cc(C(=O)O)cc1C2=O` [DIACEREIN], the EC50 in assay [16] is > 99 µM (inactive); at Caspase-3, 7.89 µM (active); in [18] it was > 99 µM (inactive); at Caspase-7 it was 14.8 µM (inactive). In addition, the half-inhibitory concentration (IC50) in [17] is 7.31 µM (active); on Protein Rev, > 75.4 µM (not active).
